Reference: patent publication US7078395B1, “Methods for treating or preventing cancer by preventing, inhibiting or arresting cell cycling” (priority 1999, dated 2006)
“And” between values parts separate entries of the source, which are not always exact repeats. Identical values can stand only once.

How the values were obtained:
MCF7 cells [1] = experiment: Proportion of cells in mitosis (PI stained cytospins, confocal microscopy); format: cell-based; details: 24 hours (control 4%)
Method: To determine the proportion of cells in mitosis, drug treated cells were collected by trypsinisation and cytospins prepared. Cells were fixed in ice cold methanol for 5 minutes, air dried and DNA was stained using propidium iodide (PI) (0.1 mg/ml in phosphate buffered saline (PBS) containing 10% (v/v) newborn calf serum and 0.05% (w/v) sodium azide). Cells were analysed by confocal microscopy using a Zeiss Axiovert 100 M microscope equipped with the LSM 510 confocal system (Zeiss, Jena, Germany).
Effect of estrone derivatives on mitosis in MCF7 cells. MCF7 cells were treated with the indicated compounds for 24 hours. Cells were recovered by trypsinisation and cytospins prepared. DNA was stained with PI and cells in mitosis (i.e., with condensed chromosomes) determined as a percentage of total cells.

[2] = tested on: MCF-7 breast cancer cells; experiment: Irreversible inhibition of cell growth, Stage 1 and Stage 2 (Coulter cell counter); format: cell-based; details: for effect on cell growth compared with controls, Stage 1: 5 μm and 1 μm; for effect on cell growth compared with controls, Stage 1 / cell numbers, % of the control cell number, Stage 1: 6 days; for effect on cell numbers, Stage 2 (irreversible growth inhibition): re-seeded after 6-day treatment, further 6 days without drug
Method: MCF-7 breast cancer cells were seeded into multi-well culture plates at a density of 10^5 cells/well. Cells were allowed to attach and grown until about 30% confluent when they were treated as follows:
Cells were grown for 6 days in growth medium containing the above drugs with changes of medium/drug every 3 days. At the end of this period cell numbers were counted using a Coulter cell counter.
After treatment of cells for a 6-day period with the above drugs cells were re-seeded at a density of 10^4 Cells/well. No further treatments were added. Cells were allowed to continue to grow for a further 6 days in the presence of growth medium. At the end of this period cell numbers were again counted.
Stages 1 and 2 described above were repeated using Control—no treatment, EMATE 20 μM and EMATE 5 μM.
MCF-7 breast cancer cells were seeded into multi-well culture plates at a density of 10^5 cells/well. Cells were allowed to attach and grown until about 30% confluent when they were treated as follows: • Control—no treatment • Compound of Interest (COI) 20 μM
Cells were grown for 6 days in growth medium containing the COI with changes of medium/COI every 3 days. At the end of this period cell numbers were counted using a Coulter cell counter.
After treatment of cells for a 6-day period with the COI cells were re-seeded at a density of 10^4 cells/well. No further treatments were added. Cells were allowed to continue to grow for a further 6 days in the presence of growth medium. At the end of this period cell numbers were again counted.

[3] = tested on: MCF7, ZR-75-1, CAL51 and CAMA1 cells; experiment: Microtitre plate growth inhibition assay (FIG. 14); format: cell-based
CAL51 cells [4] = experiment: DNA content by flow cytometry of propidium iodide stained cells; format: cell-based; details: CAL51, 500 nM
Method: (§1) MCF7, CAL51, CAMA1 and ZR-75-1 breast cancer derived cell lines were obtained from ATCC (MCF7, CAMA1, ZR-75-1) or from the Dutrillaux laboratory (CAL51) (22) and maintained in Dulbecco's modified Eagle's medium (DMEM) supplemented with 10% (v/v) fetal calf serum and antibiotics.
(§2) DNA content was determined by flow cytometric analysis of propidium iodide stained cells and TdT-mediated dUTP-nick end labelling (TUNEL), respectively, as described (20). The proportion of cells in G2/M phase of the cell cycle was calculated as a proportion of cells with […] DNA content. The proportion of cells with <G1 DNA content was calculated as a percentage of total cells.

CAMA1 cells [5] = experiment: as above; format: cell-based; details: CAMA1, 500 nM
Method: as §1, §2

ZR-75-1 cells [6] = experiment: as above; format: cell-based; details: ZR-75-1, 500 nM
Method: as §1, §2

MCF7 cells [7] = experiment: as above; format: cell-based; details: MCF7, 500 nM
Method: as §1, §2

CAL51 cells [8] = experiment: TUNEL assay; format: cell-based; details: CAL51, 500 nM for 72 hours
Method: as §2
(§3) We used the TUNEL assay to confirm that the cell death detected by flow cytometry of PI stained cells was due to apoptosis. Following exposure to 2-EtEMATE (500 nM for 72 hours) there was a significant increase in the proportion of CAL51 and CAMA1 cells undergoing apoptosis (60% and 37% TUNEL positive cells, respectively) (FIG. 16). By contrast, there was only a modest increase in TUNEL positivity in MCF7 or ZR-75-l cells (7% and 10%, respectively) treated with 2-EtEMATE at this concentration.

CAMA1 cells [9] = experiment: TUNEL assay; format: cell-based; details: CAMA1, 500 nM for 72 hours
Method: as §2, §3

ZR-75-1 cells [10] = experiment: TUNEL assay; format: cell-based; details: ZR-75-1, 500 nM for 72 hours
Method: as §2, §3

MCF7 cells [11] = experiment: TUNEL assay; format: cell-based; details: MCF7, 500 nM for 72 hours
Method: as §2, §3

[12] = tested on: nitrosomethylurea-induced mammary tumours; experiment: Growth of NMU-induced mammary tumours in intact rats; format: in vivo, rat; details: 20 mg/kg/day, p.o., 11 days, individual animals
Method: The effect of 2-MeOEMATE on mammary tumour growth was examined in a preliminary study using Ludwig rats (Harlan Olac, Bicester, UK) in which tumours were induced by inoculation of NMU. Tumour development was monitored regularly and when 0.5-1.0 cm^3 in volume, animals received vehicle (propylene glycol, 200 μl/day, p.o.), 2-MeOEMATE (20 mg/kg/day, p.o.) or 2-MeOE1 (20 mg/kg/day, p.o.) daily for an 11 day period. Tumour length and width was measured with callipers and tumour volumes calculated as described (21).

[13] = tested on: MCF-7 breast cancer cells; experiment: Cell Titer 96 cell proliferation assay, 4-day drug exposure; format: cell-based; details: 4 days
Method: (§4) MCF-7 (ER+) and MDA-MB-231 (ER−) breast cancer cells were obtained from the American Type Culture Collection (Rockville, Md.). Cells were routinely cultured in 25 cm^2 culture flasks in Eagle's minimum essential medium (EMEM) with Hepes buffer (20 mM). This medium was supplemented with L-glutamine (2 mM), sodium hydrogen carbonate (10 mM), 1% non-essential amino acids and 5% (v/v) foetal calf serum (FCS). Before adding test compounds, cells were washed with phosphate-buffered saline (PBS) and treatments added in phenol-red free medium containing 2% stripped FCS and supplements. The effects of 2-MeOE1 or 2-MeOEMATE on the growth of MCF-7 cells was assessed using a Cell Titer 96 cell proliferation assay (Promega, Southampton, Hants, UK) according to the manufacturers' instructions. For this, cells (5000 per well) were cultured in medium containing phenol-red and 10% FCS and were exposed to a drug for 4 days before the assay was performed. For MDA-MB-231 cells, cell numbers were determined using a Coulter counter.

[14] = tested on: MCF-7 breast cancer cells; experiment: Cell morphology by photomicrographs; format: cell-based; details: 1 μM, 24 h
Method: as §4
Photomicrographs of control and treated cells were taken under normal conditions of light and exposure using an Olympus SL35 Type 12 camera under an Olympus CK2 microscope (×100 magnification).

CCc1cc2c(cc1O)CC[C@@H]1[C@@H]2CC[C@]2(C)C(=O)CC[C@@H]12 [2-EtE1, 2-Ethylestrone, reference compound]
mitotic cells, percentage of total cells (MCF7 cells [1]; 500 nM): 4%
mitotic cells, percentage of total cells (MCF7 cells [1]; 5 μM): 6%
effect on cell growth compared with controls, Stage 1 [2]: little effect on cell growth
effect on cell numbers, Stage 2 (irreversible growth inhibition) [2]: little effect on cell numbers

CCc1cc2c(cc1OS(N)(=O)=O)CCC1C2CCC2(C)C(=O)CCC12 (stereo not shown) [2-EtEMATE, 2-Ethylestrone-3-O-sulfamate]
mitotic cells, percentage of total cells (MCF7 cells [1]; 500 nM): 29%
mitotic cells, percentage of total cells (MCF7 cells [1]; 5 μM): 49%
lowest dose that gave significant growth inhibition in each cell line [3]: 500 nM
cell numbers, % of the control cell number, Stage 1 ([2]; 1 m (so in the source)): 50%
cell numbers, % of the control cell number, Stage 1 ([2]; 5 μm): 36%
effect on cell numbers, Stage 2 (irreversible growth inhibition) [2]: severely growth restricted
<G1 DNA content, percent of total cells (CAL51 cells [4]; 24 hours): 2%
G1/S, percentage of total cells with a 2N to 4N DNA content (CAL51 cells [4]; 24 hours): 38%
<G1 DNA content, percent of total cells (CAL51 cells [4]; 48 hours): 10%
G1/S, percentage of total cells with a 2N to 4N DNA content (CAL51 cells [4]; 48 hours): 18%
G2/M, percentage of total cells with a 2N to 4N DNA content (CAL51 cells [4]; 48 hours): 82%
<G1 DNA content, percent of total cells (CAL51 cells [4]; 72 hours): 21%
G1/S, percentage of total cells with a 2N to 4N DNA content (CAL51 cells [4]; 72 hours): 32%
G2/M, percentage of total cells with a 2N to 4N DNA content (CAL51 cells [4]; 72 hours): 68%
G1/S, percentage of total cells with a 2N to 4N DNA content (CAL51 cells [4]; 96 hours): 23%
G2/M, percentage of total cells with a 2N to 4N DNA content (CAL51 cells [4]; 96 hours): 77%
<G1 DNA content, percent of total cells (CAMA1 cells [5]; 24 hours): 4%
G1/S, percentage of total cells with a 2N to 4N DNA content (CAMA1 cells [5]; 24 hours): 33%
<G1 DNA content, percent of total cells (CAMA1 cells [5]; 48 hours): 16%
G1/S, percentage of total cells with a 2N to 4N DNA content (CAMA1 cells [5]; 48 hours): 25%
G2/M, percentage of total cells with a 2N to 4N DNA content (CAMA1 cells [5]; 48 hours): 75%
<G1 DNA content, percent of total cells (CAMA1 cells [5]; 72 hours): 36%
G1/S, percentage of total cells with a 2N to 4N DNA content (CAMA1 cells [5]; 72 hours): 33%
G2/M, percentage of total cells with a 2N to 4N DNA content (CAMA1 cells [5]; 72 hours): 67%
G1/S, percentage of total cells with a 2N to 4N DNA content (CAMA1 cells [5]; 96 hours): 33%
G2/M, percentage of total cells with a 2N to 4N DNA content (CAMA1 cells [5]; 96 hours): 67%
<G1 DNA content, percent of total cells (ZR-75-1 cells [6]; 24 hours): 1%
G1/S, percentage of total cells with a 2N to 4N DNA content (ZR-75-1 cells [6]; 24 hours): 84%
G2/M, percentage of total cells with a 2N to 4N DNA content (ZR-75-1 cells [6]; 24 hours): 15%
<G1 DNA content, percent of total cells (ZR-75-1 cells [6]; 48 hours): 6%
G1/S, percentage of total cells with a 2N to 4N DNA content (ZR-75-1 cells [6]; 48 hours): 60%
G2/M, percentage of total cells with a 2N to 4N DNA content (ZR-75-1 cells [6]; 48 hours): 40%
<G1 DNA content, percent of total cells (ZR-75-1 cells [6]; 72 hours): 12%
G1/S, percentage of total cells with a 2N to 4N DNA content (ZR-75-1 cells [6]; 72 hours): 37%
G2/M, percentage of total cells with a 2N to 4N DNA content (ZR-75-1 cells [6]; 72 hours): 60% and 63%
<G1 DNA content, percent of total cells (ZR-75-1 cells [6]; 96 hours): 9%
G1/S, percentage of total cells with a 2N to 4N DNA content (ZR-75-1 cells [6]; 96 hours): 20%
G2/M, percentage of total cells with a 2N to 4N DNA content (ZR-75-1 cells [6]; 96 hours): 80%
<G1 DNA content, percent of total cells (MCF7 cells [7]; 24 hours): 5%
G1/S, percentage of total cells with a 2N to 4N DNA content (MCF7 cells [7]; 24 hours): 63%
G2/M, percentage of total cells with a 2N to 4N DNA content (MCF7 cells [7]; 24 hours): 37%
<G1 DNA content, percent of total cells (MCF7 cells [7]; 48 hours): 5%
G1/S, percentage of total cells with a 2N to 4N DNA content (MCF7 cells [7]; 48 hours): 38%
<G1 DNA content, percent of total cells (MCF7 cells [7]; 72 hours): 12%
G1/S, percentage of total cells with a 2N to 4N DNA content (MCF7 cells [7]; 72 hours): 34%
G2/M, percentage of total cells with a 2N to 4N DNA content (MCF7 cells [7]; 72 hours): 66%
<G1 DNA content, percent of total cells (MCF7 cells [7]; 96 hours): 8%
G1/S, percentage of total cells with a 2N to 4N DNA content (MCF7 cells [7]; 96 hours): 29%
G2/M, percentage of total cells with a 2N to 4N DNA content (MCF7 cells [7]; 96 hours): 71%
TUNEL positive cells (CAL51 cells [8]): 60%
TUNEL positive cells (CAMA1 cells [9]): 37%
TUNEL positive cells (ZR-75-1 cells [10]): 10%
TUNEL positive cells (MCF7 cells [11]): 7%

COc1cc2c(cc1O)CC[C@@H]1[C@@H]2CC[C@]2(C)C(=O)CC[C@@H]12 [2-MeOE1, 2-methoxyoestrone, reference compound]
reduction in tumour volume [12]: little effect on tumour growth and no change in tumour volume and 25%
inhibition of proliferation of MCF-7 cells ([13]; 0.1 μM): little effect
inhibition of proliferation of MCF-7 cells ([13]; 1.0 μM): little effect
inhibition of proliferation of MCF-7 cells ([13]; 10 μM): 19%
effect on cell growth compared with controls, Stage 1 [2]: little effect on cell growth
effect on cell numbers, Stage 2 (irreversible growth inhibition) [2]: little effect on cell numbers
effect on cell morphology [14]: little effect on cell morphology
